Measurements from patent publication US5391540A, “Substituted pyridine compounds” (Rohm and Haas Company, priority 1993, dated 1995).

Columns and labels:
Assay type in all cases: in vivo
Annual Bluegrass = test: Pre-emergent herbicidal activity (Table A); settings: pre-emergence, Anbg, 11.2 kg/ha, 10-14 days, read-out: herbicidal rating (% inhibition)
Summary of the method: (§1)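 Seeds were sown on compacted topsoil and covered with soil into which test compound (in acetone or water carrier) had been mixed at 11.2 kg/ha. Pans were kept watered on a greenhouse bench, and percent inhibition was scored as a rating about 10-14 days (usually 11) after treatment.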

Indian Mustard = test: Pre-emergent herbicidal activity (Table A); settings: Brassica juncea, pre-emergence, Inmu, 11.2 kg/ha, 10-14 days, read-out: herbicidal rating (% inhibition)
Summary of the method: as §1

Seedling Johnsongrass = test: Pre-emergent herbicidal activity (Table A); settings: Sorghum halepense, pre-emergence, Sejg, 11.2 kg/ha, 10-14 days, read-out: herbicidal rating (% inhibition)
Summary of the method: as §1

Wild Buckwheat = test: Pre-emergent herbicidal activity (Table A); settings: Fallopia convolvulus, pre-emergence, Wibw, 11.2 kg/ha, 10-14 days, read-out: herbicidal rating (% inhibition)
Summary of the method: as §1

Barnyardgrass = test: Pre-emergent herbicidal activity (Table A); settings: Echinochloa crus-galli, pre-emergence, Bygr, 11.2 kg/ha, 10-14 days, read-out: herbicidal rating (% inhibition)
Summary of the method: (§2)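 Percent inhibition per species, scored on a rating scale, after pre-emergent soil incorporation: test compound in acetone or water carrier mixed into cover soil, layered over seeded topsoil or vegetative propagules.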

Velvetleaf = test: Pre-emergent herbicidal activity (Table A); settings: Abutilon theophrasti, pre-emergence, Vele, 11.2 kg/ha, 10-14 days, read-out: herbicidal rating (% inhibition)
Summary of the method: as §2

Hese = test: plant injury after spraying emerged plants (Table D); set-up: scale not given here
Summary of the method: (§3)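 Injury to emerged plants was assessed after spraying. Plants came from seeds or propagules sown into sterilized, sieved silt-loam topsoil under a 1.27 cm layer of 50% topsoil with peat moss, vermiculite and wetting agent, then kept on greenhouse capillary mats with subirrigation.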

Vele = test: as above; set-up: scale not given here
Summary of the method: as §3

Wibw = test: as above; set-up: scale not given here
Summary of the method: as §3

Cotz = test: as above; set-up: scale not given here
From the text: (§4) Topsoil (silt loam) is sieved through a screen having 1.27 cm openings. In some of the tests the soil was mixed with fertilizer (1225 g/cu. m of 12/5/9 containing isobutylidene diurea), while in other tests the fertilizer was omitted. This mixture is steam sterilized and then placed in aluminum pans 6.985 cm deep having ten holes in the bottom each 0.635 cm in diameter. The soil mixture is compacted to a depth of 1.27 cm. from the top of the pan. A predetermined number of seeds of each of several dicotyledonous and monocotyledonous annual plant species and/or vegetative propagules for the perennial plant species are placed on the soil and pressed into the soil surface. The seeds and/or vegetative propagules are covered with 1.27 cm of a mixture of 50% topsoil and 50% of a mixture of Canadian sphagnum peat moss, vermiculite and a wetting agent. The pans are then placed on a capillary mat on a greenhouse bench and subirrigated as needed. After the plants reach the desired stage (9 to 14 days, 1 to 3 true leaf stage), each pan (except the control pans) is removed to a spraying chamber and sprayed by means of an atomizer, operating at a spray pressure of 170.3 kPa ([…]) at the application rates noted in Table D. In the spray solution is an amount of an emulsifying agent mixture (35% butylamine salt of dodecylbenzenesulfonic acid and 65% tall oil condensed with ethylene oxide in the ratio of 11 mols of ethylene oxide/mol of tall oil) to give a spray solution or suspension. The spray solution or suspension contains a sufficient amount of the candidate chemical in order to give application rates of the active ingredient corresponding to those shown in Table D below while applying a total amount of solution or suspension equivalent to 1870 L/Ha (200 gallons/acre). The pans are returned to the greenhouse and watered as before and the injury to the plants as compared to the control pans is observed at approximately 10-14 days (usually 11 days).
(§5) In the following Table D the legends used to identify the plant species are the same as those used in the preceding Table B.

Rape = test: as above; set-up: scale not given here
From the text: as §4, §5

Structure (SMILES) | inhibition at 11200 g/ha (Annual Bluegrass) [%] | inhibition at 11200 g/ha (Indian Mustard) [%] | inhibition at 11200 g/ha (Seedling Johnsongrass) [%] | inhibition at 11200 g/ha (Wild Buckwheat) [%] | inhibition at 11200 g/ha (Barnyardgrass) [%] | inhibition at 11200 g/ha (Velvetleaf) [%] | plant injury rating, Hese (Hese; 0.2803 kg/ha) | plant injury rating, Hese (Hese; 1.1210 kg/ha) | plant injury rating, Hese (Hese; 5.6050 kg/ha) | plant injury rating, Vele (Vele; 0.2803 kg/ha) | plant injury rating, Vele (Vele; 1.1210 kg/ha) | plant injury rating, Vele (Vele; 5.6050 kg/ha) | plant injury rating, Wibw (Wibw; 0.2803 kg/ha) | plant injury rating, Wibw (Wibw; 5.6050 kg/ha) | plant injury rating, Cotz (Cotz; 1.1210 kg/ha) | plant injury rating, Cotz (Cotz; 5.6050 kg/ha) | plant injury rating, Rape (Rape; 0.2803 kg/ha) | plant injury rating, Rape (Rape; 1.1210 kg/ha) | plant injury rating, Rape (Rape; 5.6050 kg/ha) | plant injury rating, Hese (Hese; 0.0701 kg/ha) | further results
COC(=O)c1c(OC)nc(C(F)(F)F)c(C(=O)n2ccc(F)n2)c1C1CCC1 [Compound 140, 3-pyridinecarboxylic acid, 4-cyclobuty1-5-[(3-fluoro-1H-pyrazo1-1-yl)carbonyl]-2-methoxy-6-(trifluoromethyl)-, methyl ester] | 75 to 100 | 75 to 100 | 75 to 100 | 75 to 100 | 75 to 100 | 75 to 100 | 3 | 3 | 3 | 3 | 2 | 2 | 0 | 1 | 1 | 1 | 3 | 3 | 3 |  | 
COC(=O)c1c(OC)nc(C(F)(F)F)c(C(=O)n2cccn2)c1CC1CC1 [Compound 116, 3-pyridinecarboxylic acid, 4-(cyclopropylmethyl)-2-methoxy-5-(1H-pyrazo1-1-ylcarbonyl)-6-(trifluoromethyl)-, methyl ester] | 75 to 100 | 75 to 100 | 75 to 100 | 75 to 100 | 75 to 100 | 75 to 100 | 1 | 2 | 2 | 2 | 3 | 2 | 1 | 2 | 1 | 1 | 2 | 3 | 3 | 1 | plant injury rating, Vele (Vele; 0.0701 kg/ha): 1; plant injury rating, Wibw (Wibw; 0.0701 kg/ha): 1; plant injury rating, Wibw (Wibw; 1.1210 kg/ha): 2; plant injury rating, Cotz (Cotz; 0.0701 kg/ha): 0; plant injury rating, Cotz (Cotz; 0.2803 kg/ha): 0; plant injury rating, Rape (Rape; 0.0701 kg/ha): 1
COC(=O)c1c(OC)nc(C(F)(F)F)c(C2=NCCCS2)c1CC(C)C [Compound 98, 3-pyridinecarboxylic acid, 5-(5,6-dihydro-4H-1,3-thiazin-2-yl)-2-methoxy-4-(2-methylpropyl)-6-(trifluoromethyl)-, methyl ester] | 75 to 100 | 75 to 100 | 75 to 100 | 75 to 100 | 75 to 100 | 75 to 100 | 2 | 2 | 3 | 2 | 2 | 3 | 0 | 3 | 1 | 2 | 0 | 1 | 3 | 1 | plant injury rating, Vele (Vele; 0.0701 kg/ha): 1; plant injury rating, Wibw (Wibw; 0.0701 kg/ha): 0; plant injury rating, Wibw (Wibw; 1.1210 kg/ha): 1; plant injury rating, Cotz (Cotz; 0.0701 kg/ha): 0; plant injury rating, Cotz (Cotz; 0.2803 kg/ha): 0; plant injury rating, Rape (Rape; 0.0701 kg/ha): 0
COC(=O)c1c(OC)nc(C(F)(F)F)c(C(=O)NCCCBr)c1CC(C)C [Compound 97, 3-pyridinecarboxylic acid, 5-[[(3-bromopropyl)amino)carbonyl]-2-methoxy-4-(2-methylpropyl)-6-(trifluoromethyl)-, methyl ester] | 75 to 100 | 75 to 100 | 75 to 100 | 50 to 74 | 75 to 100 | 50 to 74 | 0 | 0 | 0 | 0 | 0 | 0 | 0 | 0 | 0 | 0 | 0 | 0 | 0 | 0 | plant injury rating, Vele (Vele; 0.0701 kg/ha): 0; plant injury rating, Wibw (Wibw; 0.0701 kg/ha): 0; plant injury rating, Wibw (Wibw; 1.1210 kg/ha): 0; plant injury rating, Cotz (Cotz; 0.0701 kg/ha): 0; plant injury rating, Cotz (Cotz; 0.2803 kg/ha): 0; plant injury rating, Rape (Rape; 0.0701 kg/ha): 0
